The target in this test is T1, rat MCH1 receptor (Rattus norvegicus, UniProt P97639).
T1 construct: operatively linked to DNA encoding the rat MCH1 receptor so as to permit expression thereof; expressed in transfected cells; host or cells: Human embryonic kidney Peak rapid 293 (Peakr293) cells, transient calcium phosphate transfection, membranes
Nature of the test: Radioligand binding assay at cloned rat MCH1 receptor ([3H]Compound A). Conditions: cloned rat MCH1, Peakr293 cell membranes, 0.08 nM [3H]Compound A, 25° C., 90 minutes; read-out: Ki(MCH-1).

By Ki is commonly meant the dissociation constant of the complex between target and ligand, obtained from inhibition or displacement.

T1 sequence (P97639 whole entry): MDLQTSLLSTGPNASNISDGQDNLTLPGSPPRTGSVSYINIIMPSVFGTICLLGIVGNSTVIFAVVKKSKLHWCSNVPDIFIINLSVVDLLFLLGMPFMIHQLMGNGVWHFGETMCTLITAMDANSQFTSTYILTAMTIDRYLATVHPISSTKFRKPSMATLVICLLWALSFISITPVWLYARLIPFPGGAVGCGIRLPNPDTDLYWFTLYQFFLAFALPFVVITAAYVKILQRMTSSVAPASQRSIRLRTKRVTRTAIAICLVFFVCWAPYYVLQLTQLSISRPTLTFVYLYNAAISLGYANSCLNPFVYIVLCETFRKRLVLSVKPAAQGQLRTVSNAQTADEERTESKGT

`CCC(=O)Nc1cccc(C2CCN(CCCNC(=O)C3(c4ccc(Cl)cc4)CC3)CC2)c1` [Example 63, 1-(4-CHLOROPHENYL-N-(3-{4-[3-(PROPIONYLAMINO)PHENYL]-1-PIPERIDINYL} PROPYL)CYCLOPROPANECARBOXAMIDE]: the Ki was 150 nM. The figure for `CC(C)C(=O)Nc1ccc(F)c(C2CCN(CCCNC(=O)C3(c4ccc(Cl)cc4)CCCCC3)CC2)c1` [Example 130] is 2.6 nM; for `CCC(=O)Nc1cccc(C2CCN(CCCNC(=O)C(C)(C)c3ccc(Cl)cc3)CC2)c1` [Example 7] it is 7.9 nM; for `O=C(Nc1cccc(C2CCN(CCCNC(=O)C3(c4ccc(Cl)cc4)CC3)CC2)c1)C1CC1` [Example 118] it is 13.9 nM. The figure for `CC(C)C(=O)Nc1cccc(C2CCN(CCCNC(=O)C(c3ccc(Cl)cc3)c3ccc(Cl)cc3)CC2)n1` [Example 50] is 1.9 nM; for `CCC(=O)Nc1cccc(C2CCN(CCCNC(=O)C3(c4ccc(Cl)cc4)CCC3)CC2)c1` [Example 58, 1-(4-CHLOROPHENYL)-N-(3-{4-[3-PROPIONYLAMINO)PHENYL]-1-PIPERIDINYL} PROPYL)CYCLOBUTANECARBOXAMIDE] it is 45.9 nM; for `Cc1ccc(NC(=O)C(C)C)cc1C1CCN(CCCNC(=O)C2(c3ccc(Cl)cc3)CCC2)CC1` [Example 86] it is 3.2 nM. The figure for `Cc1ccc(NC(=O)C(C)C)cc1C1CCN(CCCNC(=O)[C@@H](C)c2ccccc2)CC1` [Example 161, 2-methyl-N-{4-methyl-3-[1-(3-{[(2S)-2-phenylpropanoyl]amino}propyl)-4-piperidinyl]phenyl} propanamide] is 24.4 nM; for `CC(C)C(=O)Nc1cc(C2CCN(CCCNC(=O)C(c3ccccc3)c3ccccc3)CC2)ccc1F` [Example 56] it is 4.5 nM; for `CC(C)C(=O)Nc1ccc(F)c(C2CCN(CCCNC(=O)C3(c4ccc(F)cc4)CCCC3)CC2)c1` [Example 129] it is 4.5 nM. In the case of `CCC(=O)Nc1cccc(C2CCN(CCCNC(=O)C(c3ccccc3)c3c(C)cc(C)cc3C)CC2)c1` (stereo not shown) [Example 14, N-[3-(1-{3-[(2-MESITYL-2-PHENYLACETYL)AMINO]PROPYL}-4-PIPERIDINYL)PHENYL] PROPANAMIDE], the Ki was 2.7 nM.

With `CCSC(C(=O)NCCCN1CCC(c2cccc(NC(=O)C(C)C)c2)CC1)(c1ccccc1)c1ccccc1` [Example 16, N-{3-[1-(3{[(ETHYLSULFANYL)(DIPHENYL)ACETYL]AMINO}PROPYL)-4-PIPERIDINYL] PHENYL}-2-METHYLPROPANAMIDE], the Ki was 1040 nM. As to `CC(C)C(=O)Nc1cccc(C2CCN(CCCNC(=O)C3(c4ccc(F)cc4)CCCC3)CC2)c1` [Example 36, 1-(4-FLUOROPHENYL)-N-(3-{4-[3-(ISOBUTYRYLAMINO)PHENYL]-1-PIPERIDINYL} PROPYL)CYCLOPENTANECARBOXAMIDE], the Ki turned out to be 11 nM. Next, `CC(C)C(=O)Nc1cccc(C2CCN(CCCNC(=O)C3(c4ccc(Cl)cc4)CC3)CC2)c1` [Example 44, 1-(4-CHLOROPHENYL)-N-(3-{4-[3-(ISOBUTYRYLAMINO)PHENYL]-1-PIPERIDINYL} PROPYL)CYCLOPROPANECARBOXAMIDE]: 19.7 nM; `Cc1ccc(NC(=O)C(C)C)cc1C1CCN(CCCNC(=O)C(F)(F)c2ccccc2)CC1` [Example 124]: 39.9 nM. Next, `CC(C)C(=O)Nc1cccc(C2CCN(CCCNC(=O)C3(c4ccc(Cl)cc4)CCC3)CC2)c1` [Example 43, 1-(4-CHLOROPHENYL)-N-(3-{4-[3-(ISOBUTYRYLAMINO)PHENYL]-1-PIPERIDINYL} PROPYL)CYCLOBUTANECARBOXAMIDE]: 13.7 nM.

As to `CC(C)C(=O)Nc1cc(C2CCN(CCCNC(=O)C(c3ccc(F)cc3)c3ccc(F)cc3)CC2)ccc1F` [Example 48, N-{5-[1-(3-{[BIS(4-FLUOROPHENYL)ACETYL]AMINO}PROPYL)-4-PIPERIDINYL]-2-FLUORO PHENYL}2-METHYLPROPANAMIDE], the Ki is 2.8 nM. Next, `O=C(Nc1cccc(C2CCN(CCCNC(=O)C(c3ccc(F)cc3)c3ccc(F)cc3)CC2)c1)OCc1ccccc1` [Example 141, Benzyl 3-[1-(3-{[bis(4-fluorophenyl)acetyl]amino}propyl)-4-piperidinyl]phenylcarbamate]: 8.8 nM. Next, `CCCC(=O)Nc1cccc(C2CCN(CCCNC(=O)C(C)c3ccc(Cl)cc3)CC2)c1` (stereo not shown) [Example 77, N-{3-[1-(3-{[2-(4-CHLOROPHENYL)PROPANOYL]AMINO}PROPYL)-4-PIPERIDINYL] PHENYL}BUTANAMIDE]: 30.7 nM; `CCC(=O)Nc1cccc(C2CCN(CCCNC(=O)C3(c4ccc(F)cc4)CCCC3)CC2)c1` [Example 60]: 41.3 nM; `CC(=O)Nc1cccc(C2CCN(CCCNC(=O)C(c3ccc(F)cc3)c3ccc(F)cc3)CC2)c1` [Example 28, N-(3-{4-[3-(acetylamino)phenyl]-1-piperidinyl}propyl)-2,2-bis(4-fluorophenyl)acetamide]: 0.4 nM.

For `CCCC(=O)Nc1ccc(OC)c(C2CCN(CCCNC(=O)C(c3ccccc3)c3ccccc3)CC2)c1` [Example 22], the Ki amounted to 136 nM.

As for `Cc1ccc(NC(=O)C(C)C)cc1C1CCN(CCCNC(=O)C(C)c2ccc(Cl)cc2)CC1` (stereo not shown) [Example 100], the Ki came out at 5 nM. With `CC(C)C(=O)Nc1cccc(C2CCN(CCCNC(=O)C3(c4ccc(Cl)cc4)CCCCC3)CC2)n1` [Example 67, 1-(4-CHLOROPHENYL)-N-(3-{4-[6-(ISOBUTYRYLAMINO)-2-PYRIDINYL]-1-PIPERIDINYL} PROPYL)CYCLOHEXANECARBOXAMIDE], the Ki was found to be 9.9 nM. `CC(C)C(=O)Nc1cccc(C2CCN(CCCNC(=O)C(C)c3ccc(F)cc3)CC2)c1` (stereo not shown) [Example 42, 2-(4-FLUOROPHENYL)-N-(3-{4-[3-(ISOBUTYRYLAMINO)PHENYL]-1-PIPERIDINYL} PROPYL)PROPANAMIDE]: the Ki was 34.3 nM.

Turning to `CC[C@H](C(=O)NCCCN1CCC(c2cc(NC(=O)C(C)C)ccc2C)CC1)c1ccccc1` [Example 163, (2S)-N-(3-{4-[5-(isobutyrylamino)-2-methylphenyl]-1-piperidinyl}propyl)-2-phenylbutanamide], the inhibitory constant (Ki) was 20 nM. The figure for `O=C(Nc1cccc(C2CCN(CCCNC(=O)C(c3ccccc3)c3ccccc3)CC2)c1)C1CC1` [Example 17] is 1.8 nM; for `CC(C)C(=O)Nc1cc(C2CCN(CCCNC(=O)C(c3ccc(F)cc3)c3ccc(F)cc3)CC2)c(F)cc1F` [Example 165, N-{5-[1-(3-{[bis(4-fluorophenyl)acetyl]amino}propyl)-4-piperidinyl]-2,4-difluorophenyl}-2-methylpropanamide] it is 1.1 nM. `CCCC(=O)Nc1cc(C2CCN(CCCNC(=O)C(C)(C)c3ccc(Cl)cc3)CC2)ccc1F` [Example 110]: the Ki amounted to 50.4 nM. Regarding `CC(=O)Nc1cccc(C2CCN(CCCNC(=O)C3(c4ccc(F)cc4)CCCCC3)CC2)c1` [Example 70, N-(3-{4-[3-(ACETYLAMINO)PHENYL]-1-PIPERIDINYL}PROPYL)-1-(4-FLUORO PHENYL)CYCLOHEXANECARBOXAMIDE], the Ki was 26.7 nM. Next, `CC(C)C(=O)Nc1cc(C2CCN(CCCNC(=O)C(C)c3ccc(F)cc3)CC2)ccc1F` (stereo not shown) [Example 46]: 44.5 nM; `CC(=O)Nc1cccc(C2CCN(CCCNC(=O)C3(c4ccc(Cl)cc4)CC3)CC2)c1` [Example 71, N-(3-{4-[3-(ACETYLAMINO)PHENYL]-1-PIPERIDINYL}PROPYL)-1-(4-CHLORO PHENYL) CYCLOPROPANECARBOXAMIDE]: 54.5 nM. Next, `O=C(Nc1cccc(C2CCN(CCCNC(=O)C3(c4ccc(Cl)cc4Cl)CC3)CC2)c1)C1CC1` [Example 117, N-[3-(4-{3-[(CYCLOPROPYLCARBONYL)AMINO]PHENYL}-1-PIPERIDINYL) PROPYL]-1-(2,4-DICHLOROPHENYL)CYCLOPROPANECARBOXAMIDE]: 17.9 nM; `Cc1ccc(NC(=O)C(C)C)cc1C1CCN(CCCNC(=O)C(c2ccccc2)(c2ccccc2)c2ccccc2)CC1` [Example 94]: 3.1 nM; `CCCC(=O)Nc1cccc(C2CCN(CCCNC(=O)C(c3ccccc3)(c3ccccc3)c3ccccc3)CC2)c1` [Example 97]: 3.6 nM. `CC(C)C(=O)Nc1cc(C2CCN(CCCNC(=O)C(C)(C)c3ccc(Cl)cc3)CC2)ccc1F` [Example 49]: the Ki was determined as 14.8 nM. Turning to `CC(=O)Nc1cccc(C2CCN(CCCNC(=O)C3(c4ccc(Cl)cc4)CCCCC3)CC2)c1` [Example 75, N-(3-{4-[3-(ACETYLAMINO)PHENYL]-1-PIPERIDINYL}PROPYL)-1-(4-CHLOROPHENYL) CYCLOHEXANECARBOXAMIDE], the Ki was 4.7 nM.

On to `CC(C)CC(=O)Nc1cccc(C2CCN(CCCNC(=O)C(c3ccccc3)c3ccccc3)CC2)c1` [Example 13], for which the Ki worked out at 11.8 nM. Next, `CCC(=O)Nc1cccc(C2CCN(CCCNC(=O)C3(c4ccc(Cl)cc4)CCCC3)CC2)c1` [Example 62, 1-(4-CHLOROPHENYL)-N-(3-{4-[3-PROPIONYLAMINO)PHENYL]-1-PIPERIDINYL} PROPYL)CYCLOPENTANECARBOXAMIDE]: 31.7 nM; `Cc1ccc(NC(=O)C(C)C)cc1C1CCN(CCCNC(=O)[C@H](C)c2ccc(Cl)cc2)CC1` [Example 167]: 18.7 nM. The figure for `Cc1ccc(C(C(=O)NCCCN2CCC(c3cccc(NC(=O)OC(C)C)c3)CC2)c2ccc(C)cc2)cc1` [Example 145, ISOPROPYL 3-[1-(3-{[BIS(4-METHYLPHENYL)ACETYL]AMINO}PROPYL)-4-PIPERIDINYL]PHENYLCARBAMATE] is 26.9 nM; for `CCC(=O)Nc1cccc(C2CCN(CCCNC(=O)C(c3ccc(Cl)cc3)c3ccc(Cl)cc3)CC2)c1` [Example 57, N-{3-[1-(3-{[2,2-BIS(4-CHLOROPHENYL)ACETYL]AMINO}PROPYL)-4-PIPERIDINYL] PHENYL}PROPANAMIDE] it is 0.5 nM; for `CCC(=O)Nc1cccc(C2CCN(CCCNC(=O)C(Br)c3ccccc3)CC2)c1` (stereo not shown) [Example 10, N-[3-(1-{3-[(2-BROMO-2-PHENYLACETYL)AMINO]PROPYL}-4-PIPERIDINYL) PHENYL]PROPANAMIDE] it is 83 nM.

(Values after patent publication US20060217418A1, “Substituted alkyl amido piperidines” (priority 2001, published 2006).)
